Test results: paper PMC9551036, “A selective and orally bioavailable VHL-recruiting PROTAC achieves SMARCA2 degradation in vivo” (Nature Communications, 2022)
Values joined by “and” are separate entries in the source; they are usually repeats but may differ in a detail not shown here. Identical values can stand only once. Like-named read-outs stand apart in the source and are kept apart here.

What was measured:
[1] = molecular target: SMARCA2 (Homo sapiens, UniProt P51531); test: SMARCA2 capillary electrophoresis protein assay in other cell lines (A549, NCI-H1568, HCT116, LU99, HCC-364, HCT-15, HCC4006, SK-N-AS); assay type: cell-based; design: endogenous in cells; host or cells: RKO, NCI-H1568, A549, HCT116, LU99, HCC-364, HCT-15, HCC4006, SK-N-AS; settings: for LogEC50: log10 of concentration in mol/l
Chain of SMARCA2 (P51531 whole entry): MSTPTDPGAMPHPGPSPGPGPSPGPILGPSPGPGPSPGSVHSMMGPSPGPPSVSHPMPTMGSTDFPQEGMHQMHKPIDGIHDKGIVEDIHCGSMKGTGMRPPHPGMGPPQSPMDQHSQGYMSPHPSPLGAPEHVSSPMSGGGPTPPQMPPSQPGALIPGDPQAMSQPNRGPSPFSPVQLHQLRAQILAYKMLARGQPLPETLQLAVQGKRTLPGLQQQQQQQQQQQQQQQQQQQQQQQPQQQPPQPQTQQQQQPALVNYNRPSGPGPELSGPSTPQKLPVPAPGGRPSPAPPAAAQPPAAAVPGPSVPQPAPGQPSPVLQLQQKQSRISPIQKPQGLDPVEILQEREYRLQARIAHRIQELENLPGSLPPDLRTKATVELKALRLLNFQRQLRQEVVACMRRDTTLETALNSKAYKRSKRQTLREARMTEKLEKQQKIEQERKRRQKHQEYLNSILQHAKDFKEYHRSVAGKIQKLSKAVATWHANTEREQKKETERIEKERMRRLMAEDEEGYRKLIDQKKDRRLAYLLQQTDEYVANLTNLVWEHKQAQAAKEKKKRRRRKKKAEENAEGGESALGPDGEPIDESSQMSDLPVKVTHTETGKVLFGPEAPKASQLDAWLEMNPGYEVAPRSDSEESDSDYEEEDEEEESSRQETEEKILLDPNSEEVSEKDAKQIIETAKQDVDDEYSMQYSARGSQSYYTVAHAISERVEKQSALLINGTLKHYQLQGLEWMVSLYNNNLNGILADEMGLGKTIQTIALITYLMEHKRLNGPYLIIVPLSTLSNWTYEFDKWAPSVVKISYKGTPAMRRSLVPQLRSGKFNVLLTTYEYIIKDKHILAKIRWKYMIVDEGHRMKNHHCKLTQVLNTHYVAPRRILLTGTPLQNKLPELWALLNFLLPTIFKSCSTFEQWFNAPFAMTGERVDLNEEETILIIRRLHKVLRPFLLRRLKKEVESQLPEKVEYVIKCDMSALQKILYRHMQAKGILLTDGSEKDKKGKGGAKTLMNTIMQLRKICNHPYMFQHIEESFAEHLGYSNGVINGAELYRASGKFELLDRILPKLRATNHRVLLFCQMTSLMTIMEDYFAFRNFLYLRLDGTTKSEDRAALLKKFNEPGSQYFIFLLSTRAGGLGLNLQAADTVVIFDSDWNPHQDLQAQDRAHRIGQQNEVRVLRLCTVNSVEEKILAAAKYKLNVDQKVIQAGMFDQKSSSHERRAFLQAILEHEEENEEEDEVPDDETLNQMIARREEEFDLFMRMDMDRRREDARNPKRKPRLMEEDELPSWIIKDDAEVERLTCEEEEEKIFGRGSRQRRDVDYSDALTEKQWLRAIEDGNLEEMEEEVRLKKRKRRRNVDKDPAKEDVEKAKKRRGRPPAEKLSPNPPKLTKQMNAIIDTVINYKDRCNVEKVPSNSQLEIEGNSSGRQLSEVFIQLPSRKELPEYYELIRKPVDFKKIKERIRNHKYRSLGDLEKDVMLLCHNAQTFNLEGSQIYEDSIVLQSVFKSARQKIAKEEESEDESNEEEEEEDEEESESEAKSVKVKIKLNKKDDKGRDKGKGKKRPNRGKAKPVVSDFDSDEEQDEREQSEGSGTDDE
Method: 130,000–200,000 cells were seeded in 24-well plates and incubated until settled down or overnight. Compounds were dissolved in DMSO and added to cells in indicated concentrations using a digital dispenser following an optional media change. Cells were incubated for 4 or 18 h as indicated. For SMARCA2/4 half-life determination, 150,000 or 200,000 cells were seeded in 24-well plates. The next day, 50 µg/ml cycloheximide (Sigma) was added and cells were incubated for 1–24 h. For SMARCA2/4 re-synthesis measurements, 200,000 cells were seeded in 24-well plates. The next day, 100 nM compound 6 was added for 4 h to degrade SMARCA2/4, and a sample was taken as baseline for normalisation. To allow re-synthesis, a VHL binder (compound 32, 25 or 50 µM) was then added for 3 or 24 h. Medium was removed, cells were washed with PBS and lysed with 80 µl Lysis Buffer (MSD Tris Lysis Buffer (#R60TX-2) + Halt Inhibitor Cocktail (100x) + Benzonase 0.5 µL/ml). Samples were frozen at −80 °C and thawed at room temperature before use. Samples were transferred to a V-bottom plate and insoluble debris was pelleted by centrifugation for 5 min at maximum speed. The supernatant was transferred to a fresh plate. Master Mix and Ladder were prepared according to manufacturer’s instructions for 12–230 kDa Wes Separation Module, 8 × 25 capillary cartridges, Protein Simple #SM-W004 with Anti-Rabbit Detection Module for Wes, Peggy Sue or Sally Sue, Protein Simple #DM-001. 4.8 µl lysate were mixed with 1.2 µl Master Mix to achieve a protein concentration of ~0.5 µg/µl. Antibodies were diluted in Antibody Diluent II (SMARCA2 Sigma #HPA029981 RRID:AB_10602406 1:25–100, SMARCA4 Cell Signalling #49360 clone D1Q7F RRID:AB_2728743 1:15–120 or Abcam #ab110641 clone EPNCIR111A RRID:AB_10861578 1:60, GAPDH Abcam #ab9485 RRID:AB_307275 1:250). Wes plates were prepared and run according to manufacturer’s instructions. Proteins were quantified with accompanying Compass Software. SMARCA2/4 protein levels were normalised to GAPDH. […] Where applicable, curves were fitted using a 4-parametric logistic model.

[2] = Plasma protein binding; assay type: in vitro ADME
Method: Binding of compound to plasma proteins was determined by equilibrium dialysis of 3 µmol/L compound in plasma (or plasma dilutions in PBS) against PBS through an 8 kDa molecular-weight cut-off cellulose membrane (RED device, Thermo Fisher) at 37 °C for 5 h. After incubation, aliquots from donor and acceptor compartments were precipitated and the concentrations in the supernatants were determined by quantitative LC-MS/MS. Calibration and quality control samples were prepared using blank plasma and internal standard. The fraction unbound was calculated as ratio of the compound concentration in the acceptor compartment to the concentration in the donor compartment.

[3] = SK-N-AS_SM2, four-parameter fit

## Cc1ncsc1-c1ccc(C(CCC(C)CCN2CCC(c3ccc4c(c3)n(C3CCCC3)c3nc(=O)c5c(Br)cccc5n43)CC2)NC(=O)C2CC(O)CN2C(=O)C(NC(=O)C2(F)CC2)C(C)(C)C)cc1 (stereo not shown) [ACBI2]
[1]; LU99_SM2, four-parameter fit
  Bottom (best-fit value, % protein remaining): 4.814%
  HillSlope: -1.159
[1]; LU99_SM2
  LogEC50: -8.209
[1]; LU99_SM2, protein degradation, four-parameter fit, read-out: EC50 (the source's name)
  DC50: 6.18 nM
[1]; NCI-H1568 (4 h), mean ± SD
  Dmax: 86 ± 6%
[1]; NCI-H1568 (4 h), mean ± SD, read-out: SMARCA2 DC50
  DC50: 13 ± 14 nM
[1]; NCI-H1568, 4h
  Bottom (% protein remaining, four-parameter fit): 6.286%
  HillSlope (protein remaining): -1.738
  LogEC50 (protein remaining): -8.191 log10(mol/l)
  Top (% protein remaining, four-parameter fit): 87.56%
[1]; NCI-H1568, 4h, conc 1.00001e-10 mol/l
  % protein remaining: 96.6234% and 94.5884%
[1]; NCI-H1568, 4h, conc 1.52416e-10 mol/l
  % protein remaining: 71.8933%
[1]; NCI-H1568, 4h, conc 3.1623e-10 mol/l
  % protein remaining: 72.7669% and 75.3978%
[1]; NCI-H1568, 4h, conc 4.57247e-10 mol/l
  % protein remaining: 96.5512%
[1]; NCI-H1568, 4h, conc 1.00001e-9 mol/l
  % protein remaining: 90.5385% and 93.373%
[1]; NCI-H1568, 4h, conc 1.37174e-9 mol/l
  % protein remaining: 95.3256%
[1]; NCI-H1568, 4h, conc 3.1623e-9 mol/l
  % protein remaining: 36.986%
[1]; NCI-H1568, 4h, conc 4.11523e-9 mol/l
  % protein remaining: 94.3111%
[1]; NCI-H1568, 4h, conc 1.00001e-8 mol/l
  % protein remaining: 19.3906% and 27.9502%
[1]; NCI-H1568, 4h, conc 1.23457e-8 mol/l
  % protein remaining: 37.9279%
[1]; NCI-H1568, 4h, conc 3.1623e-8 mol/l
  % protein remaining: 8.319% and 13.4554%
[1]; NCI-H1568, 4h, conc 3.7037e-8 mol/l
  % protein remaining: 11.4262%
[1]; NCI-H1568, 4h, conc 1.11111e-7 mol/l
  % protein remaining: 8.194%
[1]; NCI-H1568, 4h, conc 3.1623e-7 mol/l
  % protein remaining: 2.032% and 3.543%
[1]; NCI-H1568, 4h, conc 3.33333e-7 mol/l
  % protein remaining: 6.383%
[1]; NCI-H1568, 4h, conc 1e-6 mol/l
  % protein remaining: 9.793%
[1]; NCI-H1568, 4h, conc 1.00001e-6 mol/l
  % protein remaining: 2.382% and 3.308%
[1]; NCI-H1568, 4h, conc 3.1623e-6 mol/l
  % protein remaining: 2.029% and 3.947%
[1]; NCI-H1568, 4h, individual replicates, read-out: NCI-H1568 (4h) SMARCA2 DC50
  DC50: 4.72 nM and 32.5 nM and 13 nM
[1]; NCI-H1568, 4h, read-out: EC50 (protein remaining)
  DC50: 6.44 nM
[1]; NCI-H1568, 8h
  Bottom (% protein remaining, four-parameter fit): 6.315%
  HillSlope (protein remaining): -1.161
  LogEC50 (protein remaining): -8.44 log10(mol/l)
  Top (% protein remaining, four-parameter fit): 119.8%
[1]; NCI-H1568, 8h, conc 4.57247e-10 mol/l
  % protein remaining: 112.24%
[1]; NCI-H1568, 8h, conc 1.37174e-9 mol/l
  % protein remaining: 87.7845%
[1]; NCI-H1568, 8h, conc 4.11523e-9 mol/l
  % protein remaining: 63.6536%
[1]; NCI-H1568, 8h, conc 1.23457e-8 mol/l
  % protein remaining: 24.8248%
[1]; NCI-H1568, 8h, conc 3.7037e-8 mol/l
  % protein remaining: 13.998%
[1]; NCI-H1568, 8h, conc 1.11111e-7 mol/l
  % protein remaining: 8.2%
[1]; NCI-H1568, 8h, conc 3.33333e-7 mol/l
  % protein remaining: 6.313%
[1]; NCI-H1568, 8h, conc 1e-6 mol/l
  % protein remaining: 7.6382%
[1]; NCI-H1568, 8h, conc 3e-6 mol/l
  % protein remaining: 6.726%
[1]; NCI-H1568, 8h, read-out: EC50 (protein remaining)
  DC50: 3.63 nM
[1]; NCI-H1568, 18h
  Bottom (% protein remaining, four-parameter fit): 2.272%
  HillSlope (protein remaining): -0.7655
  LogEC50 (protein remaining): -9.556 log10(mol/l)
  Top (% protein remaining, four-parameter fit): 215.6%
[1]; NCI-H1568, 18h, conc 1.52416e-10 mol/l
  % protein remaining: 134.073%
[1]; NCI-H1568, 18h, conc 4.57247e-10 mol/l
  % protein remaining: 84.9656%
[1]; NCI-H1568, 18h, conc 1.37174e-9 mol/l
  % protein remaining: 57.0296%
[1]; NCI-H1568, 18h, conc 4.11523e-9 mol/l
  % protein remaining: 23.442%
[1]; NCI-H1568, 18h, conc 1.23457e-8 mol/l
  % protein remaining: 12.5025%
[1]; NCI-H1568, 18h, conc 3.7037e-8 mol/l
  % protein remaining: 5.834%
[1]; NCI-H1568, 18h, conc 1.11111e-7 mol/l
  % protein remaining: 3.6967%
[1]; NCI-H1568, 18h, conc 3.33333e-7 mol/l
  % protein remaining: 2.8858%
[1]; NCI-H1568, 18h, conc 1e-6 mol/l
  % protein remaining: 3.302%
[1]; NCI-H1568, 18h, conc 3e-6 mol/l
  % protein remaining: 4.787%
[1]; NCI-H1568, 18h, read-out: EC50 (protein remaining)
  DC50: 0.278 nM
[1]; [3]
  Bottom (best-fit value, % protein remaining): 20.4%
  HillSlope: -1.475
[1]; SK-N-AS_SM2
  LogEC50: -7.468
[1]; SK-N-AS_SM2, protein degradation, four-parameter fit, read-out: EC50 (the source's name)
  DC50: 34 nM
[2]; 10% human
  PPB fu 10% Human: < 0.054%
[2]; 10% rat
  PPB fu 10% Rat: < 0.053% and < 0.048%
[2]; bovine, 10% calf plasma dilution in PBS, 10% calf, fraction unbound, read-out: PPB fu 10% Calf
  fraction unbound at 5 h, 3 µmol/L: 0.0035
[2]; bovine, 10% plasma (plasma dilution in PBS), 10% calf, read-out: PPB fu 10% Calf
  fraction unbound at 5 h, 3 µmol/L: 0.00349
[2]; human, 10% plasma (plasma dilution in PBS), 10% human, read-out: PPB fu 10% Human
  fraction unbound at 5 h, 3 µmol/L: < 0.00045
[2]; human, plasma, human, fraction unbound, read-out: PPB fu Human
  fraction unbound at 5 h, 3 µmol/L: < 0.0005
[2]; mouse, 10% plasma (plasma dilution in PBS), 10% mouse, read-out: PPB fu 10% Mouse
  fraction unbound at 5 h, 3 µmol/L: < 0.00051
[2]; mouse, plasma, mouse, fraction unbound, read-out: PPB fu Mouse
  fraction unbound at 5 h, 3 µmol/L: < 0.0005
[2]; rat, 10% plasma (plasma dilution in PBS), 10% rat, read-out: PPB fu 10% Rat
  fraction unbound at 5 h, 3 µmol/L: < 0.00054
[2]; rat, plasma, rat, fraction unbound, read-out: PPB fu Rat
  fraction unbound at 5 h, 3 µmol/L: < 0.0005
